The record followed here is patent US20080255240A1, “Sulfonamide Derivatives” (Novo Nordisk A/S, priority 2004, published 2008).

Counter-ions that a name gives are not always drawn.

A word on the melting point: it is the temperature of the solid-liquid transition.

`Cc1cc(C(C)(C)C)c(O)c(S(=O)(=O)Nc2ccc(C#N)c(C(F)(F)F)c2)c1` had a melting point of 159 to 162 °C.
The value for `CCC(C)c1cc(C(C)(C)C)c(O)c(S(=O)(=O)Nc2ccc([N+](=O)[O-])cc2Cl)c1` (stereo not shown) (as salt: Na) [Example 7, 5-sec-Butyl-3-tert-butyl-N-(2-chloro-4-nitro-phenyl)-2-hydroxy-benzenesulfonamide] was 106 to 108 °C; that for `Cc1cc(C(C)(C)C)c(O)c(S(=O)(=O)Nc2ccc([N+](=O)[O-])cc2Cl)c1` [Example 1, 3-tert-Butyl-N-(2-chloro-4-nitro-phenyl)-2-hydroxy-5-methyl-benzenesulfonamide] was 239 to 243 °C.
On to `Cc1cc(C(C)(C)C)c(O)c(S(=O)(=O)Nc2ccc(C#N)cc2Cl)c1` [Example 3, 3-tert-Butyl-N-(2-chloro-4-cyano-phenyl)-2-hydroxy-5-methyl-benzenesulfonamide], for which the melting point lay within 101 to 105 °C.
The value for `Cc1cc(C(C)(C)C)c(O)c(S(=O)(=O)Nc2ccc(I)cc2)c1` [Example 4, 3-tert-Butyl-2-hydroxy-N-(4-iodo-phenyl)-5-methyl-benzenesulfonamide] was 184 to 185 °C.
Then `COc1ccc(NS(=O)(=O)c2cc(C)cc(C(C)(C)C)c2O)cc1` [Example 5, 3-tert-Butyl-2-hydroxy-N-(4-methoxy-phenyl)-5-methyl-benzenesulfonamide], with 130 to 134 °C; and `CC(C)(C)c1cc(C(C)(C)C)c(O)c(S(=O)(=O)Nc2ccc([N+](=O)[O-])cc2Cl)c1` [Example 6, 3,5-Di-tert-butyl-N-(2-chloro-4-nitro-phenyl)-2-hydroxy-benzenesulfonamide], with 158 to 161 °C.
